One data set deals with Human NR1/NR2A channel (Homo sapiens, UniProt Q05586+Q12879). Briefly: Automated patch clamp (QPatch16) block of NR1/NR2A channel currents in CHO-1H8 cells. Type of data set: cell-based. How it is done: Chinese Hamster Ovary (CHO-KI) cells were transfected with Effectene^R reagent following the manufacturer's instructions. Cells were triply transfected with plasmids pTet-Off, pTRE2-pur hNR1, and pGEN IRES Hyg-hNR2A. Transfection was done in medium containing Ham's F12, 10% FBS, 2 mM L-Glutamine, 200 μM ketamine and 2 μg/ml doxycycline. 24 hours post transfection, cells were split 1:10 into medium in which 200 μM ketamine was replaced with 20 μM MK-801. After an additional 24 hours (48 hours post transfection), antibiotic selection was performed as follows: 1 μg/ml puromycin, 500 μg/ml hygromycin, and 500 μg/ml geneticin (G418). After two weeks in the selection medium (with medium changes every 3-5 days), 15-20 clones developed in the flask. These clones were pooled and cultured for one more week. Cells were then clonally plated in two 96-well plates at 1 cell/well by limiting dilution. After three weeks, cells were trypsinized and each original 96-well plate was divided into two; one plate was cultured in the presence of 2 μg/ml doxycycline and the other was cultured for assay without doxycycline. After three days, the assay plates were screened for functional NMDAR expression by stimulating with 50 μM glycine/100 μM glutamate. Two positive clones were expanded and tested for glutamate dose response with glycine fixed at 30 μM. One clone, CHO-1H8 gave robust, dose-dependent response to glutamate and was selected for further characterization.
Chain of Human NR1/NR2A channel (Q12879 23-1464, other chains not shown): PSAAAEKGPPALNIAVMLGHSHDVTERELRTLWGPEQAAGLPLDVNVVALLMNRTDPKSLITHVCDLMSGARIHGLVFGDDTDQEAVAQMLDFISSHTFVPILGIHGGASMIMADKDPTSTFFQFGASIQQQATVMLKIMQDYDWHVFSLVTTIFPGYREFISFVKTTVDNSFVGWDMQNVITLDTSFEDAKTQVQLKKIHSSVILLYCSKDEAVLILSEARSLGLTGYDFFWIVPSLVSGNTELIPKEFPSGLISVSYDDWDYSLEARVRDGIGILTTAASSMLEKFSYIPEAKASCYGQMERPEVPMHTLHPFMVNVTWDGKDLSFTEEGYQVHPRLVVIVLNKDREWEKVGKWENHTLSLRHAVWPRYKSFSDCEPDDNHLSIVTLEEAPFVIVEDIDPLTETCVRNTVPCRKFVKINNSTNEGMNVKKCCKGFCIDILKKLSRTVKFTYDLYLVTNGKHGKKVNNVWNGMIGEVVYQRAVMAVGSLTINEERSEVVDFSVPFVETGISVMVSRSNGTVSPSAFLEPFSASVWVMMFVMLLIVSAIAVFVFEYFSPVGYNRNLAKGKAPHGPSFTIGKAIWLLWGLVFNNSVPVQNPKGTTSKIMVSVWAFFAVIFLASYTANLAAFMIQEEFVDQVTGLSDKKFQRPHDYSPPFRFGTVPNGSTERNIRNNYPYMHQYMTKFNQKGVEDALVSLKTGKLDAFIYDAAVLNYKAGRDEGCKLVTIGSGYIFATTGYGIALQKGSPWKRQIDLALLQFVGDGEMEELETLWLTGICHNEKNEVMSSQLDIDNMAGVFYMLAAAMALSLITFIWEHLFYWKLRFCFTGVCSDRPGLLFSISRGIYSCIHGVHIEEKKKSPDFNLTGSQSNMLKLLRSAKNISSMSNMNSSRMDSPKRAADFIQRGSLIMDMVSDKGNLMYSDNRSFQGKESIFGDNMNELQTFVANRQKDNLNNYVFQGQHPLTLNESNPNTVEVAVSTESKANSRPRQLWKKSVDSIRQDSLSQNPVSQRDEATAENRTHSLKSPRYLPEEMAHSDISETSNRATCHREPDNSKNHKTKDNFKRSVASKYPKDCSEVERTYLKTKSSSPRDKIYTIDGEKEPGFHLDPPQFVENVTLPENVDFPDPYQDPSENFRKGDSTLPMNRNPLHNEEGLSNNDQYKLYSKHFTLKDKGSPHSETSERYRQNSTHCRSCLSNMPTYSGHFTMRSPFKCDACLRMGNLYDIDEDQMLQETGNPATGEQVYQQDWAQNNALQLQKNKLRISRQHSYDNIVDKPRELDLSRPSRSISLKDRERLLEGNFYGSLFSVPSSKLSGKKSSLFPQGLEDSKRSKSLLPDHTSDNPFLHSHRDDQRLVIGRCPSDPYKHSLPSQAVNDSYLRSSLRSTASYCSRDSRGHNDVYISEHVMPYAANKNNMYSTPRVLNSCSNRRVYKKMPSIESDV
For routine culture, CHO-1H8 cells were maintained in Ham's F-12+2 mM L-Glutamine (PAA, E15-817), 10% FBS (Sigma, F7442), 1 μg/mL puromycin (Invitrogen A1113802), 250 μg/mL hygromycin (Invitrogen 10687010), 250 μg/mL geneticin (Invitrogen 11811-098), 1 μg/mL doxycycline (Sigma D9891), and 300 μM of the NMDA-channel blocker (R)-α-amino-6,7-dimethyl-3-(phosphonomethyl)-2-quinolinepropanoic acid (CAS 170847-87-7, Swahn et al., Bioorg. Med. Chem. Lett. 1996, 1635). Cells to be used in functional assay were grown in same medium as above, but with 1 μg/mL doxycycline replaced by 2 μg/mL tetracycline (Sigma T7660) three days before induction. Growth medium was replaced every 2-3 days, i.e. Monday-Wednesday-Friday. For induction of NMDAR expression, CHO-1H8 cells were cultured without doxycycline or tetracycline (but with CAS 170847-87-7) for 48 hours in medium prepared with Tet System-Approved FBS (BD Biosciences). […]
In order to evaluate effects of test compounds as inhibitors of NR1/NR2A channels, the channels were first activated by addition of a NMDAR agonist NMDA (Sigma, M3262) and Glycine (Merck, 3570) to the extracellular bath solution. […] NR1/NR2A currents were recorded for 12 sec after activation with 100 μM NMDA/10 μM Glycine (Icontrol). […]

For data set [1], the target named is T1, NMDA receptor.
T1 construct: Mean Ki; Mean Maximum effect
Briefly: MK801 binding inhibition (NMDA receptor antagonist activity in vitro). The settings on record: inhibition of MK801 binding to the NMDA receptor. How it is done: NMDA receptor antagonist activity can be measured in vitro by assaying a compound's ability to inhibit binding of the receptor antagonist 10,11-dihydro-5-methyl-5H-dibenzo[a,d]-cyclohepten-5,10-imine (MK801) to the receptor. The method is described by Foster and Wong, Br. J. Pharmacol. 91, 403-409 (1987).
NMDA receptor antagonist activity was measured in vitro by assaying a compound's ability to inhibit binding of the receptor antagonist 10,11-dihdro-5-methyl-5H-dibenzo[a,d]-cyclohepten-5,10-imine (MK801) to the receptor. The method is described by Foster and Wong, Br. J. Pharmacol. 91, 403-409 (1987).

For data set [2], the system named is NMDA receptor. In words: NMDA trapping. Type of data set: cell-based. The settings on record: Table 4; as described in Mealing et al. 2001. The source says:
Trapping data was generated as described in Mealing et al., J. Pharmacol. Exp. Therapeutics 2001, (297/3), 906-914.

Setting [3] is: Table 1, read-out: MK801 Binding IC50.
Where [4] appears, read: Table 3, listed as Ex 8, fumarate salt.
[5] abbreviates: Table 4, NR1/NR2A currents, cells clamped at −60 mV, activated with 100 μM NMDA/10 μM Glycine, 0.41-33.33 μM compound, read-out: Mean IC50.

From patent US20120277272A1, “Ethanamine Compounds and Methods of Using the Same” (priority 2008, published 2012) come the findings set out here.

Where a name gives a salt, the structure may show the parent alone. Read-outs that look alike come from different tables or passages of the source. Some results are limits rather than exact numbers.

For orientation: IC50 means the midpoint of a concentration-inhibition curve. The compound `N[C@H](Cc1ccccn1)c1ccccc1` (single isomer, unassigned) [Example 14, dihydrochloride, reference compound] yielded an IC50 at Human NR1/NR2A channel of 10 µM.

What is called Ki is the equilibrium dissociation constant of an inhibitor or competing ligand from its target. `CC(C)(c1ccccn1)C(N)c1ccccc1` (racemic) [Example 1, 2-methyl-1-phenyl-2-(pyridin-2-yl)propan-1-amine]: the IC50 on NMDA receptor [1] (setting [3]) amounted to 12 µM. Also, on NMDA receptor [1] (Table 3), the Ki stood at 4.9 µM and the “Mean Maximum effect” value is 75%. In addition, at NMDA receptor [1] (Table 3, read-out: Mean IC50), the IC50 amounted to 12 µM.

Take `CC(C)(c1ccccn1)[C@@H](N)c1ccccc1` [Example 8, (S)-2-methyl-1-phenyl-2-(pyridine-2-yl)propan-1-amine fumarate salt]: on NMDA receptor [1] (setting [4]), the Ki was 3.2 µM and the “Mean Maximum effect” value is 90%. Moreover, the IC50 on NMDA receptor [1] (Table 3, listed as Ex 8, fumarate salt, read-out: Mean IC50) worked out at 5.1 µM.

Take `CC(C)(c1ccccn1)C(N)c1cccc(F)c1.O=C(O)/C=C/C(=O)O` (single isomer, unassigned; stereoisomer 2) [Example 11, 1-(3-fluorophenyl)-2-methyl-2-(pyridin-2-yl)propan-1-amine fumarate salt, stereoisomer 2]: at NMDA receptor [1] (Table 3, listed as Ex 11), the Ki worked out at 2.5 µM and the “Mean Maximum effect” value came to 97%. Also, the IC50 on NMDA receptor [1] (Table 3, listed as Ex 11, read-out: Mean IC50) was 4.1 µM.

For `CC(C)(c1ccccn1)[C@H](N)c1ccccc1` [Example 2, (R)-2-methyl-1-phenyl-2-(pyridin-2-yl)propan-1-amine], the IC50 at Human NR1/NR2A channel (setting [5]) is 10 µM; on NMDA receptor [1] (setting [3]) it was 6.4 µM; at NMDA receptor [1] (Table 3, read-out: Mean IC50), above 25 µM. On NMDA receptor [1] (Table 3), this compound registered a Ki above 7.9 µM. The “Mean Maximum effect” value in the data set with NMDA receptor [1] (Table 3) was found to be 64%.

Consider `CC(C)(c1ccccn1)C(N)c1cccc(F)c1` (racemic) [Example 4, 1-(3-fluorophenyl)-2-methyl-2-(pyridin-2-yl)propan-1-amine], for which the IC50 at NMDA receptor [1] (setting [3]) amounted to 3.3 µM.

Consider `CC(C)(c1ccccn1)[C@H](N)c1cccc(F)c1` [Example 5, (R)-1-(3-fluorophenyl)-2-methyl-2-(pyridin-2-yl)propan-1-amine], for which the IC50 at NMDA receptor [1] (setting [3]) came out at 5.5 µM.

As to `CC(C)(c1ccccn1)C(N)c1cccc(F)c1.O=C(O)/C=C/C(=O)O` (racemic) [Example 9, 1-(3-Fluorophenyl)-2-methyl-2-(pyridin-2-yl)propan-1-amine fumarate salt, racemate], at NMDA receptor [1] (Table 3), the Ki was 1.3 µM and the “Mean Maximum effect” value stood at 83%. Besides, the IC50 on NMDA receptor [1] (Table 3, read-out: Mean IC50) was 3.2 µM.

Broadly, the melting point is the temperature of the solid-liquid transition. Take `CC(C)(c1ccccn1)[C@@H](N)c1ccccc1` (as salt: HCl) [Example 3, (S)-2-methyl-1-phenyl-2-(pyridin-2-yl)propan-1-amine]: the melting point amounted to 188 °C.

With `N[C@@H](Cc1ccccn1)c1ccccc1` (single isomer, unassigned) [Example 13, dihydrochloride, reference compound], the Trapping with NMDA receptor [2] worked out at 53%. At Human NR1/NR2A channel, this compound yielded an IC50 of 6 µM. At NMDA receptor [1] (Table 3), the Ki is 2.9 µM and the “Mean Maximum effect” value turned out to be 89%. Also, the IC50 at NMDA receptor [1] (Table 3, read-out: Mean IC50) is 6.6 µM.

With `CC(C)(c1ccccn1)[C@@H](N)c1cccc(F)c1` [Example 6, (S)-1-(3-fluorophenyl)-2-methyl-2-(pyridin-2-yl)propan-1-amine], the IC50 on NMDA receptor [1] (setting [3]) amounted to 25 µM.

Consider `CC(C)(c1ccccn1)[C@@H](N)c1ccccc1` [Example 3, (S)-2-methyl-1-phenyl-2-(pyridin-2-yl)propan-1-amine], for which, in the data set with NMDA receptor [2], the Trapping came to 39%. For the same compound, the IC50 at Human NR1/NR2A channel (setting [5]) is 3 µM; at NMDA receptor [1] (setting [3]) it was 35 µM; on NMDA receptor [1] (Table 3, listed as Ex 3, read-out: Mean IC50) it was 5.7 µM. Moreover, the affinity at NMDA receptor [1] (Table 3, listed as Ex 3) corresponds to a Ki of 1.8 µM. For the same compound, the “Mean Maximum effect” value in the data set with NMDA receptor [1] (Table 3, listed as Ex 3) is reported as 76%.

Turning to `CC(C)(c1ccccn1)C(N)c1cccc(F)c1.O=C(O)/C=C/C(=O)O` (single isomer, unassigned; stereoisomer 1) [Example 10, 1-(3-fluorophenyl)-2-methyl-2-(pyridin-2-yl)propan-1-amine fumarate salt, stereoisomer 1], on NMDA receptor [1] (Table 3, listed as Ex 10), the Ki is 15 µM and the “Mean Maximum effect” value is listed as 87%. Besides, the IC50 on NMDA receptor [1] (Table 3, listed as Ex 10, read-out: Mean IC50) turned out to be 25 µM.

Consider `CC(C)(c1ccccn1)C(N)c1ccccc1` (racemic) (as salt: hydrochloride) [Example 1, 2-methyl-1-phenyl-2-(pyridin-2-yl)propan-1-amine], for which the melting point was 188 °C.

`CC(C)(c1ccccn1)[C@H](N)c1ccccc1` (as salt: HCl) [Example 2, (R)-2-methyl-1-phenyl-2-(pyridin-2-yl)propan-1-amine] registered a melting point of 188 °C.
